One experiment concerns A375 cells. The experiment can be described thus: XTT assay for cell viability, A375 cells. It counts as cell-based. The conditions noted are these: Homo sapiens, A-375, 72 h. A digest of the protocol: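 RKO and A375 cells seeded at 1000-2000/well overnight, then exposed to compound for 72 h at 37° C., 5% CO2. XTT (1 mg/ml)/PMS (25 μM) added for 2-3 h; absorbance at 450 nm. Growth relative to DMSO control (100%); GI50 from sigmoidal dose-response fit.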

Another experiment has as its target T1, PI3Kα (Homo sapiens, UniProt P42336).
T1 construct: made in house; host or cells: SF9 cells
The experiment can be described thus: PI3 Kinase alpha TR-FRET assay. The format is biochemical. As for the experimental part: Compound inhibition for PI3Kα was determined in a homogeneous TR-FRET assay using a PI3Kα assay kit (Millipore, US, Catalog #33-016). The PI3 kinase catalyzes phosphorylation of […] (PIP2) to phosphatidylinositol 3,4,5-trisphosphate (PIP3) in the presence of ATP and Mg^2+. The PIP3 product is detected by displacement of biotin-PIP3 from an energy transfer complex consisting of Europium labeled anti-GST monoclonal antibody, a GST-tagged pleckstrin homology (PH) domain, biotinylated PIP3 and Streptavidin-Allophycocyanin (APC). Excitation of Europium in the complex results in an energy transfer to the APC and a fluorescence emission at 665 nm.
Compounds tested were dissolved in DMSO and directly distributed into 384-well plates at a volume of 0.5 μL. P110/P85a/PIP2 mixture (14.5 μL) was added to compound wells and incubated for 30 min at rt […]. P110/P85a was expressed in SF9 cells and purified in-house. 5 ng P110/P85a was used in the assay. The kinase reaction was started by the addition of ATP. The assay concentrations of both PIP2 and ATP were 40 μM. The reaction mixture was incubated for 30 min and was terminated by the addition of stop mix and detection mix. Fluorescence was measured at 615 and 665 nm upon excitation at 340 nm in a Victor V5 fluorometer (Perkin Elmer, US). The fluorescence emission ratio at 665 to 615 nm, proportional to the kinase activity, was plotted against the compound concentration to generate dose-response curves and IC50 values were determined.
(TR-FRET usually uses a lanthanide donor and a delayed reading to cut background.)

The test system of a further experiment is RKO cells. The experiment can be described thus: XTT assay for cell viability, RKO cells. It counts as cell-based. The conditions noted are these: Homo sapiens, 72 h. As for the experimental part: Cell lines (A375 ATCC No. CRL-1619, A2058 ATCC No. CRL-11147 and RKO ATCC No. CRL-2577, American Type Culture Collection (ATCC), Manassas Va.) once attaining ˜80% confluency were trypsinized, centrifuged and resuspended in fresh media. Cells (1000-2000/per well) were seeded in 96-well plate and incubated over-night at 37° C. in a 5% CO2 incubator. Compound dilutions were prepared in 100% DMSO followed by dilutions in the respective media. The cells were treated with NCEs for 72 h at 37° C. in 5% CO2 incubator. After 72 h, freshly prepared XTT (1 mg/ml)/PMS (25 μM) solution was added, incubated for 2 to 3 h at 37° C. and the absorbance was measured at 450 nm using an ELISA plate reader. Keeping DMSO control as 100%, the effect of the compound to inhibit the cell proliferation was calculated and the GI50 values were determined using sigmoidal dose response curve fit in GraphPad Prism® v5 software.
Background: Tetrazolium assays rely on reduction of a dye to a coloured formazan, in cell work by metabolically active cells.

In the next experiment the target is T2, B-RAFV600E (Homo sapiens, UniProt P15056, V600E).
T2 construct: purchased Millipore, USA 14-557
The experiment can be described thus: B-RAFV600E radiometric assay. The conditions noted are these: read-out: Kinase assay B-Raf. It counts as biochemical. A digest of the protocol:
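B-RAFV600E was preincubated 45 min at rt with compound in 1% DMSO. MEK-K97M (0.5 μg), 5 μM final cold ATP and [γ-32P]ATP were then added for 2 h at rt. Phosphorylated MEK was captured on P81 paper and scintillation-counted; IC50 came from a sigmoidal dose-response fit.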

Another experiment deals with pERK in A375 cells. The experiment can be described thus: In Cell Western (ICW) assay, pERK in A375 cells. It counts as cell-based. Conditions: Homo sapiens, A-375, 3 h treatment. A digest of the protocol: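 RKO or A375 cells were exposed to compounds for 3 h at 37 °C, then fixed and stained in-cell with antibodies to pERK1/2 (T202/Y204), pS6RP or pAKT T308, followed by a Eu-labelled secondary. Time-resolved fluorescence (340/615 nm) was normalized to Hoechst, and IC50 values were fitted sigmoidally against DMSO as 0% inhibition.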

The target of another experiment is T3, mTOR kinase (Homo sapiens, UniProt P42345).
T3 construct: purchased Millipore, US
The experiment can be described thus: mTOR kinase TR-FRET assay. It counts as biochemical. A digest of the protocol: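 TR-FRET with ULight-p70 S6K (Thr 389) peptide (50 nM) and 20 μM ATP in 50 mM HEPES pH 7.5, 1 mM EGTA, 3 mM MnCl2; compound pre-incubated with enzyme before substrate addition, reaction at rt, EDTA-stopped. Eu anti-phospho antibody read 665/615 nm; IC50 from sigmoidal dose-response fit.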

A further experiment concerns pERK in RKO cells. The experiment can be described thus: In Cell Western (ICW) assay, pERK in RKO cells. The format is cell-based. The conditions noted are these: Homo sapiens, 3 h treatment. As for the experimental part:
Cell lines A375, A2058 and RKO obtained from the ATCC as provided above, were grown, and after attaining ˜80% confluency were trypsinized, centrifuged and resuspended in fresh media. The cells were seeded at the specified density (20,000 to 50,000) in a 96-well format black-well clear bottom plate (Corning) and incubated overnight at 37° C. in a 5% CO2 incubator. The next day, compound dilutions of test compounds were prepared in 100% DMSO followed by dilutions in respective media. Treatment of test compounds was performed for 3 h at 37° C. in 5% CO2 incubator. Following 3 h drug treatment, the conditional media was discarded and the cells were washed once with cPBS (PBS containing 0.1% magnesium chloride hexahydrate and 0.1% anhydrous calcium chloride) and fixed with 4% paraformaldehyde in cPBS for 1 h at rt. After fixing, the cells were given three washes using cPBST (cPBS containing 0.1% Triton™ X-100 reagent) and then blocked using blocking solution (5% skimmed milk powder or 5% BSA prepared in cPBST) for 2 h at rt with shaking at 300 rpm. The cells were again washed thrice with cPBST and incubated with primary antibody phospho-p44/42 MAPK(Erk1/2)(Thr202/204) antibody (Cell Signaling, Catalog # 9101L), phospho S6 ribosomal protein (Cell Signaling, Catalog #4858L), phospho AKT (Thr 308) (Cell Signaling, Catalog #9275) or phospho AKT (Ser 473) (Cell Signaling, Catalog #4060L) in specified dilutions (1:500-1:2500), prepared in respective blocking solutions, in a racker overnight at 4° C. The next day, the cells were washed with 1× Delfia® wash buffer (4×1 wash) and incubated with secondary antibody (Delfia®-Eu-N1 labeled anti-rabbit antibody; PerkinElmer, Catalog #AD0105; dilutions: 1:2000 to 1:6000 in Delfia® assay buffer (PerkinElmer, Catalog #1244-111)) for 2 h at rt in the dark at 300 rpm. The cells were then given four washes with 1× Delfia® wash buffer and incubated with Wallac Delfia® Enhancement solution (100 μL; PerkinElmer, Catalog #1244-105) for 20 min at rt in the dark at 300 rpm. The fluorescence emission was then read at 615 nm with an excitation wavelength of 340 nm using a Victor V5 Fluorometer (Perkin Elmer, US). The cells were then washed once with 1×cPBS and incubated with 100 μL of 0.5 mg/mL of Hoechst 33258 dye prepared in cPBS and read at 460 nm with 355 nm excitation, thereby evaluating the correction factor.
The % inhibition for the test compounds of formula (I) (new chemical entities (NCEs)) was calculated keeping DMSO control as 0% and the IC50 values were determined using sigmoidal dose response curve fit in GraphPad Prism® v5 software.

T3 sequence (P42345 1362-2549 limits assumed): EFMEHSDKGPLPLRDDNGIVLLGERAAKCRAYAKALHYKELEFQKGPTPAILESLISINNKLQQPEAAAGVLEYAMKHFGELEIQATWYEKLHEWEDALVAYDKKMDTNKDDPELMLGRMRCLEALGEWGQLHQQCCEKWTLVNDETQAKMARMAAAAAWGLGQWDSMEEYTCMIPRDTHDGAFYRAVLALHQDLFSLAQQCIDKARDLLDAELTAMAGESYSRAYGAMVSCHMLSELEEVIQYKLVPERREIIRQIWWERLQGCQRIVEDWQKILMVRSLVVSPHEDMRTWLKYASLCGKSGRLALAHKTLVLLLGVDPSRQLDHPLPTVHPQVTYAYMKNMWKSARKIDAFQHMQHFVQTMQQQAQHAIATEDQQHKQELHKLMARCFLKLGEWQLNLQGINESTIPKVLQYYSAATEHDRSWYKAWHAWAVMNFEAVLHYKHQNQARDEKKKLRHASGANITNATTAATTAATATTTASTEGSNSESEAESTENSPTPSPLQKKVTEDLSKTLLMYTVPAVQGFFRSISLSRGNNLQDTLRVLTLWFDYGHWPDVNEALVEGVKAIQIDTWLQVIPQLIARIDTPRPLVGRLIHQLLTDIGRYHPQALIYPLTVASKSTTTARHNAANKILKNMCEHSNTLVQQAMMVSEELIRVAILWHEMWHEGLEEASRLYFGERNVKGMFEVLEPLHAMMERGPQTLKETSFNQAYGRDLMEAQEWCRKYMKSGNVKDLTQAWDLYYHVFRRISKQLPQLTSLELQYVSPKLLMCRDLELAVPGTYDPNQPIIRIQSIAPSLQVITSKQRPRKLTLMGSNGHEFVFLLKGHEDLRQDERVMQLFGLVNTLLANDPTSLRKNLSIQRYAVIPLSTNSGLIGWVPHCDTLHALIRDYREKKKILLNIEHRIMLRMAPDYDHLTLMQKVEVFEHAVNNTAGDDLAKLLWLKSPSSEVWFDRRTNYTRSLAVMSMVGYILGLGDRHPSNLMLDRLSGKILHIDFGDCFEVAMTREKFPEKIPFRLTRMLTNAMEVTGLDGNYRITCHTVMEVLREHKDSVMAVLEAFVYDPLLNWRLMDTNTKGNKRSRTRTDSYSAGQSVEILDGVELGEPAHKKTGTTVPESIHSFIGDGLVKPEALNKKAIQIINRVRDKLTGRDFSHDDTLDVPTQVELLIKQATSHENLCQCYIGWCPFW
T1 sequence (P42336 whole entry, species assumed): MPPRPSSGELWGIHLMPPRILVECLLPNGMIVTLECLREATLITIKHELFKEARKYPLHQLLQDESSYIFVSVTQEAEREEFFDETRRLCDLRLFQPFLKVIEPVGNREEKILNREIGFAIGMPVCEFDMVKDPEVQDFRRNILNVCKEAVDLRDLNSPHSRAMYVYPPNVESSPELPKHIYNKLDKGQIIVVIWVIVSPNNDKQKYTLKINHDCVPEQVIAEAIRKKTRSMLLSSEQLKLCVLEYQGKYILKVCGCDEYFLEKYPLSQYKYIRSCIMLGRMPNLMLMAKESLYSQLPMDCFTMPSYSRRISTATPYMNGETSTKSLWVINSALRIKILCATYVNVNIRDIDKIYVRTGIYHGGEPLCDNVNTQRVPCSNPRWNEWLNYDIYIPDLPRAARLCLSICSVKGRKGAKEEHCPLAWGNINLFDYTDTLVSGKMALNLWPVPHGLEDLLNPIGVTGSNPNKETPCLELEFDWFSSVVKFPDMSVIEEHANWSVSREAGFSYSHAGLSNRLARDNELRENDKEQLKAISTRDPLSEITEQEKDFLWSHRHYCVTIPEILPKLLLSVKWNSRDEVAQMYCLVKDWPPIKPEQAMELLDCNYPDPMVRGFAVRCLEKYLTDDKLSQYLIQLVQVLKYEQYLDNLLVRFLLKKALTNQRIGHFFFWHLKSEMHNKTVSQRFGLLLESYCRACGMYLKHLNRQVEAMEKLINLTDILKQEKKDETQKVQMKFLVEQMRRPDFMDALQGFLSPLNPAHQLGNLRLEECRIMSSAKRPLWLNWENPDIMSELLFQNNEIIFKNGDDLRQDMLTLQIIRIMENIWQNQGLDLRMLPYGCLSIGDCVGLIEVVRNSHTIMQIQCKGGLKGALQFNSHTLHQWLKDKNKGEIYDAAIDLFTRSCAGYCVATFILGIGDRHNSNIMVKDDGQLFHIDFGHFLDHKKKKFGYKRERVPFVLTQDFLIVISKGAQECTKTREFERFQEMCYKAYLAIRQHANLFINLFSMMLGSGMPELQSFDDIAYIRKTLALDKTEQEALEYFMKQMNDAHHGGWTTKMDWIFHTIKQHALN
T1 sequence (P27986 whole entry partner, species assumed): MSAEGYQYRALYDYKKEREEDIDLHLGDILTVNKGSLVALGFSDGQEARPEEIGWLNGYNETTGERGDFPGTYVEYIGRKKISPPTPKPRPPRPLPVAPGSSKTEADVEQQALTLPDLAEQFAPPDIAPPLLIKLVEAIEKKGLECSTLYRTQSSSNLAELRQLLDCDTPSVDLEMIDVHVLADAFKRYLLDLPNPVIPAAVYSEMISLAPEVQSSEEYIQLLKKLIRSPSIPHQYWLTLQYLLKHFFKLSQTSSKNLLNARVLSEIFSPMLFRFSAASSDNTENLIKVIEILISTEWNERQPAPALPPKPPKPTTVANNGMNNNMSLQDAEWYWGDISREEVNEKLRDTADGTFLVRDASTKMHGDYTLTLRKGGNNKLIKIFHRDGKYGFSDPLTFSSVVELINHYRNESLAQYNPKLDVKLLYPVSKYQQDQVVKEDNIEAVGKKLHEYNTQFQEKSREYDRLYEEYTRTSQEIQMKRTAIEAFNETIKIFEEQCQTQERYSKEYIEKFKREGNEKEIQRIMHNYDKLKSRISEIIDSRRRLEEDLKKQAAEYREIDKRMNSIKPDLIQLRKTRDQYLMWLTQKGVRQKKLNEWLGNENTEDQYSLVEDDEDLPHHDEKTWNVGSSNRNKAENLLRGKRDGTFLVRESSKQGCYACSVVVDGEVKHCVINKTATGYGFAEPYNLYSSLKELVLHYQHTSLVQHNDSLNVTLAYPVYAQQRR
T2 sequence (P15056 416-766 V600E limits assumed): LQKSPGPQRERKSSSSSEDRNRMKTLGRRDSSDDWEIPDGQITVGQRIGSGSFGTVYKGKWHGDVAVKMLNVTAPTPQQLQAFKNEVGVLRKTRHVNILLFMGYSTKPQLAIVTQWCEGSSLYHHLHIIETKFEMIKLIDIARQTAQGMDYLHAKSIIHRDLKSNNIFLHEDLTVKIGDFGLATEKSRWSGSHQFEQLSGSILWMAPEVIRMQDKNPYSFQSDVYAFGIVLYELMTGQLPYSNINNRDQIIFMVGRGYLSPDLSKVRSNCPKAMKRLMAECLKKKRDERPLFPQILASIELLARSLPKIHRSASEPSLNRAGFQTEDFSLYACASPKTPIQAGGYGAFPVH

Regarding `COc1cc(-c2cccc(NS(=O)(=O)CCCF)c2F)cc2c(N3CCOCC3)nc(-c3cnc(N)cc3C(F)(F)F)nc12` [Example 36, N-(3-(2-(6-amino-4-(trifluoromethyl)pyridin-3-yl)-8-methoxy-4-morpholinoquinazolin-6-yl)-2-fluorophenyl)-3-fluoropropane-1-sulfonamide], the IC50 in the experiment on A375 cells was 100 to 1000 nM; against PI3Kα it was 100 to 1000 nM; with RKO cells, 1000 to 10000 nM; at B-RAFV600E, 1 to 100 nM; in the experiment with pERK in A375 cells it was 1 to 100 nM.

As for `C[C@@H]1COCCN1c1nc(-c2cnc(N)cc2F)nc2ccc(-c3cccc(NS(=O)(=O)CCCF)c3F)nc12` [Example 140, (R)-N-(3-(2-(6-amino-4-fluoropyridin-3-yl)-4-(3-methylmorpholino)pyrido[3,2-d]pyrimidin-6-yl)-2-fluorophenyl)-3-fluoropropane-1-sulfonamide], the IC50 at mTOR kinase fell in the range of 100 to 1000 nM; with A375 cells, 100 to 1000 nM; with pERK in RKO cells, 1 to 100 nM; in the experiment with RKO cells, 100 to 1000 nM; at B-RAFV600E, 1 to 100 nM; in the experiment with pERK in A375 cells, 100 to 1000 nM.

For the compound `CNc1ncc(-c2nc(N3CCOC[C@H]3C)c3cc(-c4cccc(NS(=O)(=O)CCCF)c4F)cc(OC)c3n2)cn1` [Example 136, (R)-3-fluoro-N-(2-fluoro-3-(8-methoxy-2-(2-(methylamino)pyrimidin-5-yl)-4-(3-methylmorpholino)quinazolin-6-yl)phenyl)propane-1-sulfonamide], the IC50 on mTOR kinase was 100 to 1000 nM; in the experiment on pERK in RKO cells it was 1 to 100 nM; in the experiment on RKO cells, 100 to 1000 nM; on B-RAFV600E it was 1 to 100 nM.

Take `Nc1cc(C(F)(F)F)c(-c2nc(N3CCOCC3)c3nc(-c4cccc(NS(=O)(=O)c5cc(F)ccc5F)c4F)ccc3n2)cn1` [Example 104, N-(3-(2-(6-amino-4-(trifluoromethyl)pyridin-3-yl)-4-morpholinopyrido[3,2-d]pyrimidin-6-yl)-2-fluorophenyl)-2,5-difluorobenzenesulfonamide]: the IC50 in the experiment with A375 cells was 1 to 100 nM; with pERK in RKO cells it was 100 to 1000 nM; at PI3Kα it was 1 to 100 nM; at B-RAFV600E it was 1 to 100 nM; in the experiment on pERK in A375 cells, 1 to 100 nM.

Regarding `Cc1cc(-c2cccc(NS(=O)(=O)CCCF)c2F)cc2c(N3CCOCC3)nc(-c3ccc(N)nc3)nc12` [Example 117, N-(3-(2-(6-aminopyridin-3-yl)-8-methyl-4-morpholinoquinazolin-6-yl)-2-fluorophenyl)-3-fluoropropane-1-sulfonamide], the IC50 against mTOR kinase was 1 to 100 nM; with A375 cells, 100 to 1000 nM; with RKO cells, 1000 to 10000 nM; on B-RAFV600E it was 1 to 100 nM; in the experiment on pERK in A375 cells it was 1 to 100 nM.

For the compound `CNC(=O)Nc1ccc(-c2nc(N3CCOCC3)c3cc(-c4cccc(NS(=O)(=O)c5c(F)cccc5F)c4F)cc(OC)c3n2)cc1` [Example 1, 2,6-Difluoro-N-(2-fluoro-3-(8-methoxy-2-(4-(3-methylureido)phenyl)-4-morpholinoquinazolin-6-yl)phenyl)benzenesulfonamide], the IC50 at mTOR kinase lay within 1 to 100 nM; in the experiment with A375 cells, 100 to 1000 nM; in the experiment with pERK in RKO cells, 100 to 1000 nM; with RKO cells, 1000 to 10000 nM; at B-RAFV600E it was 1 to 100 nM; in the experiment with pERK in A375 cells it was 100 to 1000 nM.

For `Nc1ccc(-c2nc(N3CCOCC3)c3cc(-c4cccc(NS(=O)(=O)CCCF)c4F)cc(OC4CCCC4)c3n2)cn1` [Example 53, N-(3-(2-(6-aminopyridin-3-yl)-8-(cyclopentyloxy)-4-morpholinoquinazolin-6-yl)-2-fluorophenyl)-3-fluoropropane-1-sulfonamide], the IC50 against mTOR kinase fell in the range of 1 to 100 nM; with A375 cells, 1 to 100 nM; in the experiment with RKO cells, 100 to 1000 nM; at B-RAFV600E, 1 to 100 nM; with pERK in A375 cells it was 1 to 100 nM.

Take `CCCS(=O)(=O)Nc1cccc(-c2cc(C)c3nc(-c4ccc(N)nc4)nc(N4CCOCC4)c3c2)c1F` [Example 8, N-(3-(2-(6-aminopyridin-3-yl)-8-methyl-4-morpholinoquinazolin-6-yl)-2-fluorophenyl)propane-1-sulfonamide]: the IC50 in the experiment on A375 cells, at PI3Kα, in the experiment on RKO cells, at B-RAFV600E and in the experiment on pERK in A375 cells was 100 to 1000 nM throughout.

As for `COc1cc(-c2cccc(NS(=O)(=O)CCCF)c2F)cc2c(N3CCOCC3)nc(-c3cccc4[nH]ncc34)nc12` [Example 37, N-(3-(2-(1H-indazol-4-yl)-8-methoxy-4-morpholinoquinazolin-6-yl)-2-fluorophenyl)-3-fluoropropane-1-sulfonamide], the IC50 lay within 100 to 1000 nM in the experiment with A375 cells; 100 to 1000 nM on PI3Kα; 1000 to 10000 nM with RKO cells; 1 to 100 nM on B-RAFV600E; 1 to 100 nM in the experiment with pERK in A375 cells.

These data come from patent US9499495B2, “Quinazolines and azaquinazolines as dual inhibitors of RAS/RAF/MEK/ERK and PI3K/AKT/PTEN/mTOR pathways” (Asana Biosciences, LLC, priority 2013, dated 2016).
